From the OPERA property sets (Mansouri et al. 2018)
≈ marks a conversion by molar mass, not a printed value.

| Structure (SMILES) | logP | further results |
| --- | --- | --- |
| CON=C(C)c1cccc(Oc2nc(OC)cc(OC)n2)c1C(=O)OC | 2.84 | solubility (20 °C): 0.249 mM (≈ 90 µg/mL) |
| C#CCOC(=O)[C@@H](C)Oc1ccc(Oc2ncc(Cl)cc2F)cc1 | 3.9 |  |
| O=C(NC(=O)c1c(F)cccc1F)Nc1cc(Cl)c(F)c(Cl)c1F |  | solubility (23 °C): 5.12e-05 mM (≈ 0.0195 µg/mL) |
| CON=C(Cc1cccnc1)c1ccc(Cl)cc1Cl | 3.7 |  |
| O=C(NC(=O)c1c(F)cccc1F)Nc1cc(Cl)c(OC(F)(F)C(F)C(F)(F)F)cc1Cl (centres undefined) | 5.12 |  |
| ClC=CCCl (mixture of isomers) | 2.04 |  |
| CCc1cccc(C)c1N(COC(C)C)C(=O)CCl | 3.5 |  |
| COCCN(C(=O)CCl)c1c(C)cccc1C | 2.17 | solubility (20 °C): 8.59 mM (≈ 2200 µg/mL) |
| Cc1ccn2nc(S(=O)(=O)Nc3c(F)cccc3F)nc2n1 |  | solubility (pH 2.5): 0.15 mM (≈ 48.7 µg/mL) |
| CC(C)=C1OC(=O)N(c2cc(OC3CCCC3)c(Cl)cc2F)C1=O |  | solubility (25 °C): 0.000611 mM (≈ 0.216 µg/mL) |
| COC(=O)C(C)Oc1ccc(Oc2ncc(C(F)(F)F)cc2Cl)cc1 (centres undefined) | 4.07 |  |
| Fc1cccc(F)c1-c1nnc(-c2ccccc2Cl)nn1 | 3.3 |  |
| COC(=O)CSc1cc(/N=c2\sc(=O)n3n2CCCC3)c(F)cc1Cl | 3.77 |  |
| CNC(=O)CSP(=O)(OC)OC | -0.74 |  |
| CCOC(=O)c1cnn(C)c1S(=O)(=O)NC(=O)Nc1nc(OC)cc(OC)n1 | 1.3 |  |
| CC1=NNC(=O)N(/N=C/c2cccnc2)C1 | -0.18 | solubility (25 °C): 1.34 mM (≈ 290 µg/mL) |
| Cc1cc(C)nc(NC(=O)NS(=O)(=O)c2ccccc2C(=O)OC2COC2)n1 |  | solubility (pH 5.1, 25 °C): 0.128 mM (≈ 52 µg/mL) |
| CSC(=O)c1cccc2nnsc12 | 3.1 | solubility (25 °C): 0.0366 mM (≈ 7.7 µg/mL) |
| CC(C)OC(=O)c1cc(C(=O)OC(C)C)cc([N+](=O)[O-])c1 |  | solubility (20 °C): 0.00914 mM (≈ 2.7 µg/mL) |
| CN(C(O)=NC(C)(C)c1ccccc1)c1ccccc1 | 3.01 |  |
| CCCSC(=O)N(CCC)CCC | 3.84 | solubility (20 °C): 0.443 mM (≈ 90 µg/mL) |
| CC(C)OC(=O)C(C(=O)OC(C)C)=C1SCCS1 |  | solubility (25 °C): 0.175 mM (≈ 50.9 µg/mL) |
| CCCCC(O)(Cn1cncn1)c1ccc(Cl)cc1Cl (centres undefined) | 3.9 |  |
| CCc1nn(C)c(C(=O)NCc2ccc(C(C)(C)C)cc2)c1Cl | 4.61 |  |
| Oc1ccc(Cl)cc1Cc1cc(Cl)ccc1O |  | solubility (25 °C): 0.111 mM (≈ 30 µg/mL) |
| NC(=O)C1(N2C(=O)c3cccc(Cl)c3C2=O)CCCCC1 |  | solubility (25 °C): 0.0978 mM (≈ 30 µg/mL) |
| CCOP(=S)(OCC)Oc1ccc(=O)n(-c2ccccc2)n1 | 3.2 | solubility (20 °C): 0.294 mM (≈ 100 µg/mL) |
| O=c1c2cc(F)ccc2nc(-n2cncn2)n1-c1ccc(Cl)cc1Cl |  | logD (pH 5.6): 3.24 |

| Structure (SMILES) | logP | further results |
| --- | --- | --- |
| CC1(C)[C@H](C(=O)O[C@H](C#N)c2cccc(Oc3ccccc3)c2)[C@@H]1/C=C\C(=O)OC(C(F)(F)F)C(F)(F)F |  | solubility (25 °C): 3.69e-05 mM (≈ 0.02 µg/mL) |
| Cc1c(COC(=O)[C@@H]2[C@H](/C=C(\Cl)C(F)(F)F)C2(C)C)cccc1-c1ccccc1 (racemic) |  | solubility: 0.000236 mM (≈ 0.1 µg/mL) |
| CNc1cnn(-c2cccc(C(F)(F)F)c2)c(=O)c1Cl |  | solubility (25 °C): 0.111 mM (≈ 33.7 µg/mL) |
| COc1cc(OC)n2nc(S(=O)(=O)Nc3c(Cl)ccc(C)c3Cl)nc2n1 | 3.08 | solubility (20 °C): 0.478 mM (≈ 200 µg/mL) |
| CCOP(=S)(OCC)OC(Cl)C(Cl)(Cl)Cl (centres undefined) |  | solubility (20 °C): < 0.00298 mM |
| CCN(CC)C(=O)n1cnc(S(=O)(=O)c2c(C)cc(C)cc2C)n1 | 3.21 |  |
| C/C(=N\NC(=O)Nc1cc(F)cc(F)c1)c1ncccc1C(=O)O |  | solubility: 0.188 mM (≈ 63 µg/mL) |
| CCOc1ccc([Si](C)(C)CCCc2ccc(F)c(Oc3ccccc3)c2)cc1 | 8.2 |  |
| CCCCOC(=O)C1(O)c2ccccc2-c2ccccc21 | 3.7 |  |
| CNC(=O)ON=C(C)C(C)SC (centres undefined) | 1.1 | solubility (20 °C): 184 mM (≈ 35000 µg/mL) |
| O=C(Nc1ccc(Cl)cc1C(O)c1ccccc1)c1ccncc1 (centres undefined) | 3.13 |  |
| CCOc1nc(C(Cl)(Cl)Cl)ns1 | 3.37 | solubility (25 °C): 0.473 mM (≈ 117 µg/mL) |
| O=C(NC(=O)c1c(F)cccc1F)Nc1cc(Cl)c(OC(F)(F)C(F)F)c(Cl)c1 | 5.68 |  |
| FC(F)(F)C(=NOCC1OCCO1)c1ccc(Cl)cc1 | 2.9 | solubility (20 °C): 0.0969 mM (≈ 30 µg/mL) |
| CCOCOc1ccc(C(=O)Nc2cccc(Cl)c2Cl)cc1 | 4.3 | solubility (25 °C): 0.0027 mM (≈ 0.92 µg/mL) |
| CCCCOCC(C)OC(=O)COc1nc(F)c(Cl)c(N)c1Cl (centres undefined) | 4.17 |  |
| O=C(Nc1ccccc1)Nc1ccnc(Cl)c1 | 3.2 |  |
| COP(=O)(OC)OC1=C(Cl)C2C=CCC12 (centres undefined) | 2.32 |  |
| CC(C)(COCc1cccc(Oc2ccccc2)c1)c1ccc(OC(F)(F)Br)cc1 |  | solubility (25 °C): 1.05e-07 mM (≈ 5e-05 µg/mL) |
| COc1nn(CSP(=S)(OC)OC)c(=O)s1 | 2.2 |  |
| CCOC(=O)C1(C)OC(=O)N(c2cc(Cl)cc(Cl)c2)C1=O (centres undefined) | 3.15 |  |
| CS(=O)(=O)c1cc(C(F)(F)F)ccc1C(=O)c1cnoc1C1CC1 | 2.32 | solubility (pH 5.5, 20 °C): 0.0173 mM (≈ 6.2 µg/mL) |
| COc1nc(C)nc(NC(=O)NS(=O)(=O)c2ccccc2OCCCl)n1 |  | logD (pH 5.0): 1.1; solubility (pH 5.0, 25 °C): 0.0796 mM (≈ 32 µg/mL) |
| CCN(Cc1ccc(Cl)nc1)C(=C[N+](=O)[O-])NC |  | solubility (pH 7.0, 20 °C): 3100 mM (≈ 840000 µg/mL) |
| C[N+]1(C)CCCCC1.[Cl-] |  | logD (pH 7.0): -2.82 |
| CCOC(=O)C(Cl)Cc1cc(-n2nc(C)n(C(F)F)c2=O)c(F)cc1Cl (centres undefined) | 3.36 | solubility (25 °C): 0.0534 mM (≈ 22 µg/mL) |
| CCCCOCN(C(=O)CCl)c1c(CC)cccc1CC |  | solubility (20 °C): 0.0688 mM (≈ 21.4 µg/mL) |
